Experimental data reported in ChEMBL document CHEMBL5137049, “Discovery of a Novel Small-Molecule Inhibitor Disrupting TRBP-Dicer Interaction against Hepatocellular Carcinoma via the Modulation of microRNA Biogenesis” (J Med Chem, 2022).
Active and inactive are the calls of the source.

Legend:
[1] = system: HepG2; assay: Upregulation of pre-miR-21 in human HepG2 cells at 10 uM incubated for 6 hrs by qRT-PCR analysis; format: functional, cell-based
[2] = system: HepG2; assay: Upregulation of pre-miR-221 in human HepG2 cells at 10 uM incubated for 6 hrs by qRT-PCR analysis; format: functional, cell-based
[3] = system: HeLa; assay: Upregulation of pri-miR-214 in human HeLa cells at 10 uM incubated for 6 hrs by qRT-PCR analysis; format: functional, cell-based
[4] = system: HepG2; assay: Upregulation of pri-miR-21 in human HepG2 cells at 10 uM incubated for 6 hrs by qRT-PCR analysis; format: functional, cell-based
[5] = system: SK-HEP1; assay: Downregulation of miR-18a expression in human SK-HEP1 cells at 10 uM by qRT-PCR analysis; format: functional, cell-based
[6] = system: SK-HEP1; assay: Upregulation of PTEN protein expression in human SK-HEP1 cells incubated for 24 hrs by Western blotting analysis; format: functional, cell-based; conditions: dose 1-50 µM, DDE = dose-dependent effect
[7] = system: HepG2; assay: Downregulation of miR-221 expression in human HepG2 cells at 10 uM incubated for 6 hrs by qRT-PCR analysis; format: functional
[8] = system: HeLa; assay: Upregulation of pre-miR-30a in human HeLa cells at 10 uM incubated for 6 hrs by qRT-PCR analysis; format: functional, cell-based
[9] = system: HCCLM3; assay: Upregulation of miR-125 expression in human HCCLM3 cells at 10 uM by qRT-PCR analysis; format: functional, cell-based
[10] = system: Mus musculus; assay: Downregulation of vimentin expression in liver of SCID mouse xenografted with human SK-HEP1 cells at 10 to 50 mg/kg, ip administered every 2 days for 4 weeks by immunohistochemical staining analysis; format: functional, organism-based; conditions: dose 10-50 mg/kg
[11] = Acute toxicity in KM mouse assessed as effect on heart at 100 mg/kg, ip administered for 7 consecutive days by hematoxyin-eosin staining based analysis; format: organism-based; conditions: in vivo, 168 h, time 7 day
[12] = system: SK-HEP1; assay: Downregulation of N-cadherin expression level in TRBP siRNA transfected human SK-HEP1 cells incubated for 48 hrs by Western blotting analysis; format: functional, cell-based
[13] = system: HCCLM3; assay: Upregulation of let-7 expression in human HCCLM3 cells at 10 uM by qRT-PCR analysis; format: functional, cell-based
[14] = system: SK-HEP1; assay: Downregulation of N-cadherin expression in human SK-HEP1 cells at 1 to 25 uM by Western blot analysis; format: functional, cell-based; conditions: dose 1-25 µM
[15] = Toxicity in SCID mouse xenografted with human MHCC97-L cells assessed as change in body weight at 10 to 50 mg/kg, ip administered every 2 days for 4 weeks and measured on alternate days; format: organism-based; conditions: in vivo, 672 h, dose 10-50 mg/kg
[16] = system: HCCLM3; assay: Downregulation of miR-18a expression in human HCCLM3 cells at 10 uM by qRT-PCR analysis; format: functional, cell-based
[17] = system: HCCLM3; assay: Downregulation of miR-135 expression in human HCCLM3 cells at 10 uM by qRT-PCR analysis; format: functional, cell-based
[18] = system: HeLa; assay: Downregulation of miR-30A expression in human HeLa cells at 10 uM incubated for 6 hrs by qRT-PCR analysis; format: functional
[19] = system: MHCC97-L; assay: Inhibition of cell invasion in human MHCC97-L cells at 1 to 25 uM measured after 24 hrs by crystal violet staining based transwell assay; format: functional; conditions: dose 1-25 µM
[20] = Inhibition of TRBP (unknown origin) - recombinant Dicer (unknown origin) protein-protein interaction incubated for 3 hrs by GST pull-down assay; parameters: species or system Homo sapiens
[21] = system: HeLa; assay: Upregulation of pri-miR-30a in human HeLa cells at 10 uM incubated for 6 hrs by qRT-PCR analysis; format: functional, cell-based
[22] = Inhibition of microRNA in human HeLa cells transfected with pCI-neo-luciferase-miR-21 plasmid assessed as increase in luciferase activity by luciferase reporter assay; format: cell-based
[23] = Acute toxicity in KM mouse assessed as effect on kidney at 100 mg/kg, ip administered for 7 consecutive days by hematoxyin-eosin staining based analysis; format: organism-based; conditions: in vivo, 168 h, time 7 day
[24] = species on record: Homo sapiens; assay: Effect on ADAR1-Dicer interaction (unknown origin) assessed as increase in binding of ADAR1 to Dicer at 1 to 25 uM by Western blotting analysis; conditions: dose 1-25 µM
[25] = system: SK-HEP1; assay: Upregulation of E-cadherin expression level in TRBP siRNA transfected human SK-HEP1 cells incubated for 48 hrs by Western blotting analysis; format: functional, cell-based
[26] = system: HeLa; assay: Downregulation of miR-214 expression in human HeLa cells at 10 uM incubated for 6 hrs by qRT-PCR analysis; format: functional
[27] = system: HeLa; assay: Upregulation of pre-miR-155 in human HeLa cells at 10 uM incubated for 6 hrs by qRT-PCR analysis; format: functional, cell-based
[28] = Toxicity in SCID mouse xenografted with human MHCC97-L cells assessed as effect on lung at 10 to 50 mg/kg, ip administered every 2 days for 4 weeks by hematoxyin-eosin staining based analysis; format: organism-based; conditions: in vivo, 672 h, dose 10-50 mg/kg
[29] = system: HCCLM3; assay: Inhibition of cell migration in human HCCLM3 cells assessed as reduction of cell mobility at 1 to 25 uM measured at 24 hrs by well scratch method; format: functional, cell-based; conditions: dose 1-25 µM
[30] = system: HCCLM3; assay: Inhibition of cell migration in human HCLLM3 cells at 1 to 25 uM measured after 24 hrs by crystal violet staining based transwell assay; format: functional; conditions: dose 1-25 µM
[31] = system: MHCC97-L; assay: Antitumor activity against human MHCC97-L cells xenografted in SCID mouse assessed as reduction in tumor proliferation at 10 to 50 mg/kg, ip administered every 2 days for 4 weeks; format: functional, organism-based; conditions: dose 10-50 mg/kg
[32] = system: SK-HEP1; assay: Downregulation of SUV39H1 expression in human SK-HEP1 cells at 1 to 25 uM by Western blotting analysis; format: functional, cell-based; conditions: dose 1-25 µM
[33] = species on record: Homo sapiens; assay: Effect on PACT-Dicer interaction (unknown origin) assessed as increase in binding of PACT to Dicer at 1 to 25 uM by Western blotting analysis; conditions: dose 1-25 µM
[34] = system: HepG2; assay: Upregulation of pri-miR-221 in human HepG2 cells at 10 uM incubated for 6 hrs by qRT-PCR analysis; format: functional, cell-based
[35] = system: HeLa; assay: Upregulation of pre-miR-21 in human HeLa cells at 10 uM incubated for 6 hrs by qRT-PCR analysis; format: functional, cell-based
[36] = system: HCCLM3; assay: Antiproliferative activity against human HCCLM3 cells assessed as inhibition of cell growth incubated for 72 hrs by CellTiter-luminescence assay; format: functional, cell-based
[37] = Acute toxicity in KM mouse assessed as effect on brain at 100 mg/kg, ip administered for 7 consecutive days by hematoxyin-eosin staining based analysis; format: organism-based; conditions: in vivo, 168 h, time 7 day
[38] = system: HeLa; assay: Upregulation of pre-miR-214 in human HeLa cells at 10 uM incubated for 6 hrs by qRT-PCR analysis; format: functional, cell-based
[39] = system: HeLa; assay: Upregulation of pri-miR-21 in human HeLa cells at 10 uM incubated for 6 hrs by qRT-PCR analysis; format: functional, cell-based
[40] = system: MHCC97-L; assay: Upregulation of let-7 expression in human MHCC97-L cells at 10 uM by qRT-PCR analysis; format: functional, cell-based
[41] = system: HepG2; assay: Downregulation of miR-21 expression in human HepG2 cells at 10 uM incubated for 6 hrs by qRT-PCR analysis; format: functional
[42] = Acute toxicity in KM mouse assessed as effect on liver at 100 mg/kg, ip administered for 7 consecutive days by hematoxyin-eosin staining based analysis; format: organism-based; conditions: in vivo, 168 h, time 7 day

CCOC(=O)c1nc(-c2ccc(OC)cc2)oc1C
12.3 µM: IC50 [20]
Non-Toxic: Activity [11] | Activity [15] | Activity [23] | Activity [28] | Activity [37] | Activity [42]
active: Activity [1] | Activity [2] | Activity [3] | Activity [4] | Activity [5] | Activity [6] Dde | Activity [8] | Activity [9] | Activity [10] | Activity [12] | Activity [13] | Activity [14] | Activity [16] | Activity [17] | inhibition [19] | Activity [21] | Activity [24] | Activity [25] | Activity [27] | inhibition [29] | inhibition [30] | Activity [31] | Activity [32] | Activity [33] | Activity [34] | Activity [35] | Activity [36] | Activity [38] | Activity [39] | Activity [40]
1.38 µM: EC50 [22]
60%: Activity [7] | Activity [18] | Activity [26] | Activity [41]
